Reference: article PMC10108821, “Three tyrosine kinase inhibitors cause cardiotoxicity by inducing endoplasmic reticulum stress and inflammation in cardiomyocytes” (BMC Medicine, 2023)

Legend:
[1] = test system: patients; conditions: cited from earlier work
[2] = test system: ER stress genes in NRCMs; assay: qRT-PCR of ER stress genes in NRCMs; assay type: cell-based, rat; conditions: afatinib 5.62 µM, sorafenib 3.16 μM, ponatinib 1.78 μM
Experimental: Rats were euthanized by decapitation and thoracic cavity was opened with scissors and hearts were popped out of the opening gently with fingers. Hearts were clipped and put in HBSS immediately; 20–40 hearts were collected into one sterile vial containing a magnetic stir bar and 1 mL digestive media made of 0.1% trypsin (Macklin) and 0.05% collagenase (Gibco) in HBSS. Hearts were minced until they were uniform in size. Digestive media was added to 10 mL for 40 hearts and stirred gently for 6 min. Supernatant was discarded and the digestion was repeated once; 10 mL digestive media was added and stirred gently for 10 min. The supernatant with cells were collected and the digestion and collection were repeated 4 times. Cells were centrifuged at 1200 rpm for 5 min, resuspended in media (Dulbecco’s modified Eagleʼs medium (Gibco)) with 10% fetal bovine serum (FBS; VISTECH), 1% penicillin–streptomycin, and 1% 0.1 M 5-bromo-2-deoxyuridine solution (Shanghai Yuanye) and filtered through a 40-μm cell strainer. Cells were seeded on a 100-mm plastic dish and cultured in a 5% CO2 incubator at 37 °C for 2 h to allow non-myocytes to adhere to the plate. The dish was swirled and media gently pipetted up and down to detach lightly attached cardiomyocytes. […] All drug treatments were performed after this media change.
RNA was isolated based on a standard protocol using TRIzol reagent (Vazyme). TRIzol (1ml per 1 well of a 6-well plate) was used to lyse cells and chloroform was added for RNA separation. Samples were shaked vigorously by hand for 15 seconds and incubated at room temperature for 2-3 minutes. RNA was present in the aqueous phase after centrifuge at 12000 x g for 15 minutes. Isopropyl alcohol was mixed to precipitate RNA from the aqueous phase. […] 1 μg total RNA was used for cDNA synthesis using a reverse transcription kit (Bioman). We then measured expression of genes of interest with SYBRR Green qPCR Mix (Bioman) using Applied Biosystems 7500 Quantitative PCR Instrument. Gene expression was normalized to the 18S ribosomal RNA expression and primers were listed in Primers Table.

[3] = test system: rat left ventricles; assay: Rat gavage cardiotoxicity model: qRT-PCR in left ventricles; assay type: in vivo; conditions: ponatinib 15 mg/kg, sorafenib 50 mg/kg gavage, 3 or 7 days
Experimental: All experiments were performed in accordance with relevant guidelines and regulations approved by the Institutional Animal Care and Use Committee (IACUC) at Peking University Health Science Center. Sprague-Dawley rats (170-200g) were purchased from Beijing Vital River Laboratory Animal Technology. Forty-eight male rats were randomly divided into six groups, with 8 animals per group. […] The gavage was done daily starting at 10am. At the end of the experiments, rats were euthanized by CO2 about 5~6 hours after the last gavage, and then hearts were harvested for further study. Left ventricular muscle was dissected and divided into 3 parts with similar size, one of which was used for RNA extraction and qRT-PCR.
RNA was isolated based on a standard protocol using TRIzol reagent (Vazyme). TRIzol (1ml per 1 well of a 6-well plate) was used to lyse cells and chloroform was added for RNA separation. Samples were shaked vigorously by hand for 15 seconds and incubated at room temperature for 2-3 minutes. RNA was present in the aqueous phase after centrifuge at 12000 x g for 15 minutes. Isopropyl alcohol was mixed to precipitate RNA from the aqueous phase. […] 1 μg total RNA was used for cDNA synthesis using a reverse transcription kit (Bioman). We then measured expression of genes of interest with SYBRR Green qPCR Mix (Bioman) using Applied Biosystems 7500 Quantitative PCR Instrument. […]

[4] = test system: Cor.4U hiPSC-CMs; assay: 3'DGE-UMI RNAseq transcriptome of hiPSC-CMs
[5] = test system: NRCMs; assay: Lipid peroxidation by C11-bodipy 581/591 and flow cytometry
Experimental: For ROS assessment, cells were washed with PBS once and stained with 10μM H2DCFHDA (MCE) in phenol red-free DMEM (Procell) in a humid incubator with 5% CO2 at 37°C for 30 minutes. Cells were washed with PBS twice and dissociated to single cells before flow cytometry analysis at the FITC channel. For lipid peroxidation measurement, cells were washed with PBS once and stained with 2μM C11-bodipy^581/591 (Cayman) in phenol red-free DMEM (Procell) in a humid incubator with 5% CO2 at 37°C for 30 minutes. Cells were washed with PBS twice and dissociated to single cells before flow cytometry analysis at both the FITC and the PE channels. Fluorescence of the oxidized C11-bodipy were acquired through the FITC channel (Ex/Em=488/520nm) and that of the non-oxidized C11-bodipy through the PE channel (Ex/Em=555/624nm).

[6] = Sprague-Dawley, rat, 24 h, 10 µM

SMILES: CNC(=O)c1cc(Oc2ccc(NC(=O)Nc3ccc(Cl)c(C(F)(F)F)c3)cc2)ccn1 [sorafenib]
- myocardial ischemia ([1]; clinical trials): 2.7–3%
- level of cardiotoxicity based on literature reports ([1]; ref Table S1, 2, 4, 26–36): high-levels of cardiotoxicity
- temporal activation of ER stress genes, 72 versus 24 h [2]: most gene targets of ER stress were downregulated over time
- gene expression of Anp [3]: did not induce a significant change
- expression of tRNA aminoacylation gene markers (SARS, GARS) ([4]; Cluster 3): increased
- expression of genes associated with ER stress (ATF4, NUPR1, DDIT3, TRIB3, CHAC1, SESN2, HERPUD1) ([4]; high PC1 loadings, ponatinib at high dose): upregulated
- change in percent of cells with high lipid peroxidation [5]: increased slightly
- level of lipid peroxidation, TKI alone [5, 6]: 94.6%
- level of lipid peroxidation, TKI with trolox [5, 6]: 88%
